The values that follow are results of earlier work, collected in patent publication US20030004141A1, “Medical devices, compositions and methods for treating vulnerable plaque” (priority 2001, published 2003).

Molecules are shown by their SMILES.

For this data set the following is noted: general statement from cited pre-clinical and clinical studies.

Take `CNC(=O)[C@@H](NC(=O)[C@H](CC(C)C)[C@H](O)C(=O)NO)C(C)(C)C` [marimastat]: the in vivo toxicity entry is recorded as “minimal in vivo toxicity”.
